The target in one test is T1, human NPR1 (Homo sapiens, UniProt P16066).
T1 construct: host or cells: CHO-K1
T1 sequence (P16066 33-1061): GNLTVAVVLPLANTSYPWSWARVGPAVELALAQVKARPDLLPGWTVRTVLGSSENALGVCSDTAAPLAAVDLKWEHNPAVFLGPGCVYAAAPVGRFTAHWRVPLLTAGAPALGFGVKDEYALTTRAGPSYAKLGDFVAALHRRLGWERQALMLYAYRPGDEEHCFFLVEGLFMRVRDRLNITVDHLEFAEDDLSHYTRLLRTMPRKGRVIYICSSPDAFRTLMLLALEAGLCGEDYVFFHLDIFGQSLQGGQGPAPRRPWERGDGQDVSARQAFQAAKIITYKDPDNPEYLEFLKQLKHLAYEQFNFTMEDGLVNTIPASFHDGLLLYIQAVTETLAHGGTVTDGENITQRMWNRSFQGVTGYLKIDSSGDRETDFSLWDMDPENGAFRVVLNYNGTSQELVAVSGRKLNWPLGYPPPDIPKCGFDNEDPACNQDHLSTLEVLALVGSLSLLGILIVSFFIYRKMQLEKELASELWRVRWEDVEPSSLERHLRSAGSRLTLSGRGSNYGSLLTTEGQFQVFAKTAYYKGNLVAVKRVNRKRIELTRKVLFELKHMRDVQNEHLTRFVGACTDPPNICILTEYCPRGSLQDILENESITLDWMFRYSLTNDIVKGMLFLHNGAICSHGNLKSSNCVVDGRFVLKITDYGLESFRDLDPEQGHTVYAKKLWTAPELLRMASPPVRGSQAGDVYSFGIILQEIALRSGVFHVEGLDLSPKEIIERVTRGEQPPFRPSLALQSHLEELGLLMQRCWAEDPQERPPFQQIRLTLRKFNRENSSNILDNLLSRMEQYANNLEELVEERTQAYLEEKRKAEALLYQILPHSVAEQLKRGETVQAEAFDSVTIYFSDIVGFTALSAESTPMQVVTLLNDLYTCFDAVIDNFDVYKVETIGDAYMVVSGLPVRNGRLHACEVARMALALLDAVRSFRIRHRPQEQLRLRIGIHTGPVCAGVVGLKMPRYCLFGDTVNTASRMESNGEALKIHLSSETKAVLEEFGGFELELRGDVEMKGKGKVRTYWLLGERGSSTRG
Put plainly: Cellular cGMP production assay, human NPR1 expressing CHO-K1 cells (CisBio HTRF). The class given is cell-based. To be noted: for AC50: cGMP production, 30 min at 37° C., 12-point dose-response from 30 μM; for Human NPR1 Amax (% of ANP): maximum cGMP production as percentage of the maximum cGMP produced with ANP. The procedure, abridged:
(§1)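 Step 1: add buffer (PBS, 0.1% BSA, 1 mM IBMX) and compounds, 3-fold series from 30 μM top. Step 2: incubate 30 min, 37 °C. Step 3: lyse; HTRF reagents 1 h at RT.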

The target in the next test is monkey NPR1 (Macaca fascicularis, UniProt A0A7N9DBT9). The experiment in a line: Cellular cGMP production assay, monkey NPR1 expressing CHO-K1 cells (CisBio HTRF). The class given is cell-based. To be noted: for Monkey NPR1 Amax (% of ANP): maximum cGMP production as percentage of the maximum cGMP produced with ANP. The gist of the method: as §1
[1] abbreviates: cGMP production, monkey NPR1 CHO-K1 cells, 30 min at 37° C., 12-point dose-response from 30 μM, read-out: Monkey NPR1 AC50.

Structures are written as SMILES. Where two headings read alike, the source gives them in different places.

monkey NPR1, sequence (A0A7N9DBT9 entry or part of it): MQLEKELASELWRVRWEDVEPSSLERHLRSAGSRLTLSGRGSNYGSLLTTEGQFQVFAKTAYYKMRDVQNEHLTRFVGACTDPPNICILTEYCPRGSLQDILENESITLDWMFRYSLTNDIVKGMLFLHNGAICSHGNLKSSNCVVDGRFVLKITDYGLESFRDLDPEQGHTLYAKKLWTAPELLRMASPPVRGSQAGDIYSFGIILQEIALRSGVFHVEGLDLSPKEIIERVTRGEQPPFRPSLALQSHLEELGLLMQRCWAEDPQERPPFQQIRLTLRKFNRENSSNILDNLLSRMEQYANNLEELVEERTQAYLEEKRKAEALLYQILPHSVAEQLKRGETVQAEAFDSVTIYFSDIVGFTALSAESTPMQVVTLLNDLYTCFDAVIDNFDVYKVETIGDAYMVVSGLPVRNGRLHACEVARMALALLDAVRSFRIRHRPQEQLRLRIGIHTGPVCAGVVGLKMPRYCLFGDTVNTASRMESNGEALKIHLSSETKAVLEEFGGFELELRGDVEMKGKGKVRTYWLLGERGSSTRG

As for `CC[C@H]([C@H]1CC[C@H](C(=O)O)CC1)N(C)c1nc2c(c(N[C@@H](CN3CCC[C@H](C)C3)c3cnn(C)c3)n1)C[C@@H](c1ccccc1)CC2` [Compound 101, (1R,4r)-4-((R)-1-(methyl((S)-4-(((R)-1-(1-methyl-1H-pyrazol-4-yl)-2-((S)-3-methylpiperidin-1-yl)ethyl)amino)-6-phenyl-5,6,7,8-tetrahydroquinazolin-2-yl)amino)propyl)cyclohexane-1-carboxylic acid], at human NPR1, the AC50 is 0.377 µM and the “Human NPR1 Amax (% of ANP)” value is on record as 93.777 % of ANP. Further, the AC50 on monkey NPR1 (setting [1]) came out at 0.335 µM. Also, the “Monkey NPR1 Amax (% of ANP)” value on monkey NPR1 (monkey NPR1 CHO-K1 cells) is listed as 101.476 % of ANP.
Regarding `CC[C@H]([C@H]1CC[C@H](C(=O)O)CC1)N(C)c1nc2c(c(N[C@@H](CN3C4CCCC3CC4)c3cn(C)nc3C)n1)C[C@H](c1cccc(F)c1)CC2` [Compound 102, (1R,4r)-4-((1R)-1-(((6R)-4-(((1R)-2-(8-azabicyclo[3.2.1]octan-8-yl)-1-(1,3-dimethyl-1H-pyrazol-4-yl)ethyl)amino)-6-(3-fluorophenyl)-5,6,7,8-tetrahydroquinazolin-2-yl)(methyl)amino)propyl)cyclohexane-1-carboxylic acid], on human NPR1, half-maximal activity (AC50) was put at 0.382 µM and the “Human NPR1 Amax (% of ANP)” value is listed as 96.769 % of ANP. The same molecule had an AC50 at monkey NPR1 of 0.279 µM. The “Monkey NPR1 Amax (% of ANP)” value at monkey NPR1 (monkey NPR1 CHO-K1 cells) is on record as 107.819 % of ANP.
In the same order, the values of `CC[C@H]([C@H]1CC[C@H](C(=O)O)CC1)N(C)c1nc2c(c(N[C@@H](CN3C4CCCC3CC4)c3cnn(C)c3)n1)C[C@H](c1ccccc1)CC2` [Compound 103, (1R,4r)-4-((1R)-1-(((6R)-4-(((1R)-2-(8-azabicyclo[3.2.1]octan-8-yl)-1-(1-methyl-1H-pyrazol-4-yl)ethyl)amino)-6-phenyl-5,6,7,8-tetrahydroquinazolin-2-yl)(methyl)amino)propyl)cyclohexane-1-carboxylic acid] are 0.393 µM, 101.239 % of ANP, 0.35 µM and 106.030 % of ANP.
For the molecule `CC[C@H]([C@H]1CC[C@H](C(=O)O)CC1)N(C)c1nc2c(c(N[C@@H](CN3CCCC[C@@H]3CO)c3cnn(CC)c3)n1)C[C@H](c1cccc(F)c1)CC2` [Compound 104, (1R,4r)-4-((R)-1-(((R)-4-(((R)-1-(1-ethyl-1H-pyrazol-4-yl)-2-((R)-2-(hydroxymethyl)piperidin-1-yl)ethyl)amino)-6-(3-fluorophenyl)-5,6,7,8-tetrahydroquinazolin-2-yl)(methyl)amino)propyl)cyclohexane-1-carboxylic acid], at human NPR1, half-maximal activity (AC50) was put at 0.396 µM and the “Human NPR1 Amax (% of ANP)” value is 106.357 % of ANP. In addition, the AC50 at monkey NPR1 (setting [1]) was 0.29 µM. Besides, the “Monkey NPR1 Amax (% of ANP)” value at monkey NPR1 (monkey NPR1 CHO-K1 cells) is recorded as 109.908 % of ANP.
Consider `CC[C@H]([C@H]1CC[C@H](C(=O)O)CC1)N(C)c1nc2c(c(N[C@@H](CN3C4CCCC3CC4)c3ccn(C)n3)n1)C[C@H](c1cccc(F)c1)CC2` [Compound 105, (1R,4r)-4-((1R)-1-(((6R)-4-(((1S)-2-(8-azabicyclo[3.2.1]octan-8-yl)-1-(1-methyl-1H-pyrazol-3-yl)ethyl)amino)-6-(3-fluorophenyl)-5,6,7,8-tetrahydroquinazolin-2-yl)(methyl)amino)propyl)cyclohexane-1-carboxylic acid], for which, at human NPR1, the activity was half-maximal at 0.396 µM (AC50) and the “Human NPR1 Amax (% of ANP)” value is on record as 99.945 % of ANP. The same molecule registered a concentration at half-maximal activity (AC50) at monkey NPR1 of 0.272 µM. Besides, the “Monkey NPR1 Amax (% of ANP)” value at monkey NPR1 (monkey NPR1 CHO-K1 cells) is recorded as 97.086 % of ANP.
Consider `CC[C@H]([C@H]1CC[C@H](C(=O)O)CC1)N(C)c1nc2c(c(N[C@@H](CN3CCC[C@H](C)C3)c3cnn(C)c3)n1)CN(c1ccccc1F)CC2` [Compound 106, (1R,4r)-4-((R)-1-((6-(2-fluorophenyl)-4-(((R)-1-(1-methyl-1H-pyrazol-4-yl)-2-((S)-3-methylpiperidin-1-yl)ethyl)amino)-5,6,7,8-tetrahydropyrido[4,3-d]pyrimidin-2-yl)(methyl)amino)propyl)cyclohexane-1-carboxylic acid], for which the AC50 at human NPR1 was found to be 0.399 µM; at monkey NPR1 (setting [1]), 0.254 µM. Moreover, the “Human NPR1 Amax (% of ANP)” value at human NPR1 was 100.198 % of ANP. For the same molecule, the “Monkey NPR1 Amax (% of ANP)” value on monkey NPR1 (monkey NPR1 CHO-K1 cells) is 104.076 % of ANP.
For `CC[C@H]([C@H]1CC[C@H](C(=O)O)CC1)N(C)c1nc2c(c(NC(CN3CCC[C@H](C)C3)c3cnn(CF)c3)n1)C[C@H](c1ccccc1)CC2` (stereo partly drawn) [Compound 107, (1R,4r)-4-((1R)-1-(((6R)-4-((1-(1-(fluoromethyl)-1H-pyrazol-4-yl)-2-((S)-3-methylpiperidin-1-yl)ethyl)amino)-6-phenyl-5,6,7,8-tetrahydroquinazolin-2-yl)(methyl)amino)propyl)cyclohexane-1-carboxylic acid], in that order: 0.404 µM, 0.224 µM, 97.223 % of ANP and 100.163 % of ANP.
Regarding `CC[C@@H](Nc1nc2c(c(N[C@@H](CN3C4CCCC3CCC4)c3ccccc3)n1)C[C@H](c1ccccc1)CC2)[C@H]1CC[C@H](C(=O)O)CC1` [Compound 108, (1R,4r)-4-((R)-1-(((R)-4-(((R)-2-((1S,5S)-9-azabicyclo[3.3.1]nonan-9-yl)-1-phenylethyl)amino)-6-phenyl-5,6,7,8-tetrahydroquinazolin-2-yl)amino)propyl)cyclohexane-1-carboxylic acid], at human NPR1, the AC50 amounted to 0.41 µM and the “Human NPR1 Amax (% of ANP)” value is reported as 93.072 % of ANP. On monkey NPR1, this molecule registered a half-maximal activity concentration (AC50) of 0.248 µM. The “Monkey NPR1 Amax (% of ANP)” value on monkey NPR1 (monkey NPR1 CHO-K1 cells) is listed as 99.706 % of ANP.
On to `CC[C@@H](Nc1nc2c(c(N[C@@H](CN3CCCC4(CCOC4)C3)c3cnn(CC)c3)n1)C[C@H](c1ccccc1)CC2)[C@H]1CC[C@H](C(=O)O)CC1` (stereo partly drawn) [Compound 109, (1R,4r)-4-((1R)-1-(((6R)-4-(((1R)-1-(1-ethyl-1H-pyrazol-4-yl)-2-(2-oxa-7-azaspiro[4.5]decan-7-yl)ethyl)amino)-6-phenyl-5,6,7,8-tetrahydroquinazolin-2-yl)amino)propyl)cyclohexane-1-carboxylic acid], for which, at human NPR1, the half-maximal activity concentration (AC50) is 0.412 µM and the “Human NPR1 Amax (% of ANP)” value is reported as 91.101 % of ANP. Further, the AC50 on monkey NPR1 (setting [1]) amounted to 0.19 µM. Besides, on monkey NPR1 (monkey NPR1 CHO-K1 cells), the “Monkey NPR1 Amax (% of ANP)” value is given as 115.338 % of ANP.
In the same order, the values of `CC[C@H]([C@H]1CC[C@H](C(=O)O)CC1)N(C)c1nc2c(c(N[C@@H](CN3CCC[C@H](C)C3)c3cnn(C)c3)n1)CN(c1ccc(F)cc1)CC2` [Compound 110, (1R,4r)-4-((R)-1-((6-(4-fluorophenyl)-4-(((R)-1-(1-methyl-1H-pyrazol-4-yl)-2-((S)-3-methylpiperidin-1-yl)ethyl)amino)-5,6,7,8-tetrahydropyrido[4,3-d]pyrimidin-2-yl)(methyl)amino)propyl)cyclohexane-1-carboxylic acid] are 0.419 µM, 99.979 % of ANP, 0.238 µM and 103.438 % of ANP.
Consider `CC[C@@H](N(C)c1nc2c(c(N[C@@H](CN3C4CCCC3CC4)c3sc(C)nc3C)n1)C[C@H](c1cccc(F)c1)CC2)C12CC(C(=O)O)(C1)C2` [Compound 111, 3-((1R)-1-(((6R)-4-(((1S)-2-(8-azabicyclo[3.2.1]octan-8-yl)-1-(2,4-dimethylthiazol-5-yl)ethyl)amino)-6-(3-fluorophenyl)-5,6,7,8-tetrahydroquinazolin-2-yl)(methyl)amino)propyl)bicyclo[1.1.1]pentane-1-carboxylic acid], for which, at human NPR1, the activity was half-maximal at 0.424 µM (AC50) and the “Human NPR1 Amax (% of ANP)” value was 106.085 % of ANP. This molecule gave an AC50 at monkey NPR1 of 0.271 µM. The “Monkey NPR1 Amax (% of ANP)” value at monkey NPR1 (monkey NPR1 CHO-K1 cells) is 103.264 % of ANP.

The record behind these values is patent US12129246B1, “Hydroquinazoline derivatives for the treatment of a disease or disorder” (Novartis AG, priority 2023, dated 2024).
